This note sets out measurements from publication PMC4687525, “Drosophila Avoids Parasitoids by Sensing Their Semiochemicals via a Dedicated Olfactory Circuit” (PLoS Biology, 2015).

This test concerns the target T1, Or85f (Drosophila melanogaster, UniProt Q9VHE6).
T1 construct: full-length receptor, UAS-Or85f transgene expressed in mutant ab3A neuron lacking Or22a (delta-halo empty neuron); endogenous Orco; with Odorant receptor coreceptor
T1 sequence (Q9VHE6 1-392): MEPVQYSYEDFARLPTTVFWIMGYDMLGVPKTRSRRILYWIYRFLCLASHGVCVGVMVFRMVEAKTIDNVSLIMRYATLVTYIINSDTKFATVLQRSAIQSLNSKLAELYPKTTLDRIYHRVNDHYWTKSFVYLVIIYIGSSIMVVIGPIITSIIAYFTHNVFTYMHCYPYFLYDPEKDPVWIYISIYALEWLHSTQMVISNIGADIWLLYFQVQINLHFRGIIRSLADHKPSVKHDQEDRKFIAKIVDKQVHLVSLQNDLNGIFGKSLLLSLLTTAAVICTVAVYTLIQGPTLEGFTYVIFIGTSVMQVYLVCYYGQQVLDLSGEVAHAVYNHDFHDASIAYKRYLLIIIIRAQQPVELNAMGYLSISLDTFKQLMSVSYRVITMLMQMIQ
T1 sequence (Q9VNB5 1-486 partner): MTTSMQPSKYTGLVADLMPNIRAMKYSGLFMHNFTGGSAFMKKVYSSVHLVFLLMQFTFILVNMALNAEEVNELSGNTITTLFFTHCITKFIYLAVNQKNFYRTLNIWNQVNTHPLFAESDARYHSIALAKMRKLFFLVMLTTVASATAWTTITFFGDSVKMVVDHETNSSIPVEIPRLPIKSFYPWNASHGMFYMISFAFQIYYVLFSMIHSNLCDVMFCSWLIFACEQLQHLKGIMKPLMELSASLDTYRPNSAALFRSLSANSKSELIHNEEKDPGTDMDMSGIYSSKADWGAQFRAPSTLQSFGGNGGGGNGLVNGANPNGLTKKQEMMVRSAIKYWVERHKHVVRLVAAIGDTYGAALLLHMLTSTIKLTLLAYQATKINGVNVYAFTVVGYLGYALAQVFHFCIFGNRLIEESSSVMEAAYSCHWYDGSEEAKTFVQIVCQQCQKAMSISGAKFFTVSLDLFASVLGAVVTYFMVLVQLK
The test can be described thus: GC-coupled single sensillum recording, empty neuron (ab3A). The following applies: agonist. The format is cell-based.

Where [1] appears, read: reference sample described as racemic.

With `CC1=CO[C@@H](O)[C@@H]2[C@@H]1CC[C@@H]2C` (racemic) [1R4aS7S7aS-nepetalactol], under setting [1], the “GC-coupled single sensillum recording, empty neuron (ab3A)” value was 1S4aR7R7aS, 1R4aS7S7aS-nepetalactol and their enantiomers) activated OSNs expressing Or85f.
Still for that read-out and setting: under `CC1=CO[C@H](O)[C@H]2[C@H](C)CC[C@@H]12` (racemic) [1S4aR7R7aS-nepetalactol] stands 1S4aR7R7aS, 1R4aS7S7aS-nepetalactol and their enantiomers) activated OSNs expressing Or85f.
With `Cc1cncc2c1CC[C@H]2C` [(R)-actinidine], the “GC-coupled single sensillum recording, empty neuron (ab3A)” value is “When we tested OSNs misexpressing Or85f, they became activated by (R)-actinidine and nepetalactol”.
